Measured values published in patent publication US8007995B2 (Bristol-Myers Squibb Company, priority 2005, dated 2011).

Assays:
Test in all cases: Proliferation assay (cell counts, growth inhibition)
Format in all cases: cell-based, human
[1] = tested on: HCC-1954; conditions: Basal, ER Negative, HER-2 Amplified, inhibition at 1 μM
Description: (§1) The cell lines MDA-MB-415, MDA-MB-134, HCC-1500, ZR-75-30, HCC-202, HCC-1419, HCC-38, HCC-70, HCC-1187, HCC-1806, HCC-1937, HCC-1954, MDA-MB-436, HCC-1569, Hs578t, HCC-1143, MDA-MB-175, BT-474, SK-BR-3, MDA-MB-361, UAC-893, UACC-812, UACC-732, T-47D, MDA-MB-453, MDA-MB-468, CAMA-1, MDA-MB-157, MCF-7, MDA-MB-435, ZR-75-1, BT-20, and MDA-MB-231 were obtained from American Type Culture Collection (Rockville, Md.). The cell lines EFM-192A, KPL-1, EFM-19 and CAL-51 were obtained from the German Tissue Repository DSMZ (Braunschweig Germany), and the cell lines SUM-190 and SUM-225 were obtained from the University of Michigan (Ann Arbor, Mich.). MDA-MB-134, MDA-MB415, MDA-MB-436, MDA-MB-175, UACC-893, UACC-812, and MDA-MB-157 cells were cultured in L15 medium supplemented with 10% heat-inactivated fetal bovine serum (FBS), […] glutamine and 1% penicillin G-streptomycin-fungizone solution (PSF, Irvine Scientific, Santa Ana, Calif.). CAL-51, KPL-1, Hs578t cells were grown in DMEM supplemented with 10% heat-inactivated FBS and PSF, as above. SUM-190 and SUM-225 cells were cultured in HAM's F12 supplemented with 5% heat-inactivated FBS, PSF, […] hydrocortisone. The remaining cell lines were cultured in RPMI 1640 supplemented with 10% heat-inactivated FBS, 2 mmol/L glutamine, and PSF.
(§2) Cells were seeded in duplicate at 5,000 to 10,000 cells per well in 24-well plates. […] Control wells without drug were seeded as well. Both the adherent and floating fractions of cells were counted on days 2, 5 and 7 for both treatment and control wells. After trypsinization cells were placed in Isotone solution and counted immediately using a Coulter Z2 particle counter (Beckman Coulter Inc, Fullerton, Calif.).
(§3) Growth inhibition was calculated [(1-experimental value/control value)×100] for each day adding both the values obtained for the floating cells and the adherent cells. Pearson-Chi-square analysis was performed to identify a correlation between subtype and sensitivity to dasatinib. Dasatinib was a gift from Frank Lee at Bristol-Meyers-Squibb.

[2] = tested on: MDA-MB-231; conditions: Post-EMT, ER Negative, HER-2 Normal, inhibition at 1 μM
Description: as §1, §2, §3

[3] = tested on: HCC-1143; conditions: Basal, ER Negative, HER-2 Normal, inhibition at 1 μM
Description: as §1, §2, §3

[4] = tested on: SK-BR-3; conditions: Luminal, ER Negative, HER-2 Amplified, inhibition at 1 μM
Description: as §1, §2, §3

[5] = tested on: HCC-1419; conditions: Luminal, ER Positive, HER-2 Amplified, inhibition at 1 μM
Description: as §1, §2, §3

[6] = tested on: Hs578t; conditions: Post-EMT, ER Negative, HER-2 Normal, inhibition at 1 μM
Description: as §1, §2, §3

[7] = tested on: BT-474; conditions: Luminal, ER Positive, HER-2 Amplified, inhibition at 1 μM
Description: as §1, §2, §3

[8] = tested on: CAL-51; conditions: Post-EMT, ER Negative, HER-2 Normal, inhibition at 1 μM
Description: as §1, §2, §3

[9] = tested on: ZR-75-30; conditions: Luminal, ER Positive, HER-2 Amplified, inhibition at 1 μM
Description: as §1, §2, §3

[10] = tested on: MDA-MB-436; conditions: Post-EMT, ER Negative, HER-2 Normal, inhibition at 1 μM
Description: as §1, §2, §3

[11] = tested on: EFM-19; conditions: Luminal, ER Positive, HER-2 Normal, inhibition at 1 μM
Description: as §1, §2, §3

[12] = tested on: BT-20; conditions: Basal, ER Negative, HER-2 Normal, inhibition at 1 μM
Description: as §1, §2, §3

[13] = tested on: EFM-192A; conditions: Luminal, ER Positive, HER-2 Amplified, inhibition at 1 μM
Description: as §1, §2, §3

[14] = tested on: T-47D; conditions: Luminal, ER Positive, HER-2 Normal, inhibition at 1 μM
Description: as §1, §2, §3

[15] = tested on: SUM-225; conditions: Luminal, ER Negative, HER-2 Amplified, inhibition at 1 μM
Description: as §1, §2, §3

[16] = tested on: HCC 38; conditions: Basal, ER Negative, HER-2 Normal, inhibition at 1 μM
Description: as §1, §2, §3

[17] = tested on: UACC-732; conditions: Luminal, ER Positive, HER-2 Amplified, inhibition at 1 μM
Description: as §1, §2, §3

[18] = tested on: SUM-190; conditions: Luminal, ER Negative, HER-2 Amplified, inhibition at 1 μM
Description: as §1, §2, §3

[19] = tested on: HCC-1500; conditions: Luminal, ER Positive, HER-2 Normal, inhibition at 1 μM
Description: as §1, §2, §3

[20] = tested on: CAMA-1; conditions: Luminal, ER Positive, HER-2 Normal, inhibition at 1 μM
Description: as §1, §2, §3

[21] = tested on: HCC-70; conditions: Basal, ER Negative, HER-2 Normal, inhibition at 1 μM
Description: as §1, §2, §3

[22] = tested on: UACC-812; conditions: Luminal, ER Positive, HER-2 Amplified, inhibition at 1 μM
Description: as §1, §2, §3

[23] = tested on: MCF-7; conditions: Luminal, ER Positive, HER-2 Normal, inhibition at 1 μM
Description: as §1, §2, §3

[24] = tested on: MDA-MB-435; conditions: Post-EMT, ER Negative, HER-2 Normal, inhibition at 1 μM
Description: as §1, §2, §3

[25] = tested on: MDA-MB-468; conditions: Basal, ER Negative, HER-2 Normal, inhibition at 1 μM
Description: as §1, §2, §3

[26] = tested on: HCC-1187; conditions: Basal, ER Negative, HER-2 Normal, inhibition at 1 μM
Description: as §1, §2, §3

[27] = tested on: MDA-MB-175; conditions: Luminal, ER Positive, HER-2 Normal, inhibition at 1 μM
Description: as §1, §2, §3

[28] = tested on: HCC-1569; conditions: Post-EMT, ER Negative, HER-2 Amplified, inhibition at 1 μM
Description: as §1, §2, §3

[29] = tested on: HCC-1937; conditions: Basal, ER Negative, HER-2 Normal, inhibition at 1 μM
Description: as §1, §2, §3

[30] = tested on: MDA-MB-453; conditions: Luminal, ER Negative, HER-2 Amplified, inhibition at 1 μM
Description: as §1, §2, §3

[31] = tested on: MDA-MB-415; conditions: Luminal, ER Positive, HER-2 Normal, inhibition at 1 μM
Description: as §1, §2, §3

[32] = tested on: HCC-1806; conditions: Basal, ER Negative, HER-2 Normal, inhibition at 1 μM
Description: as §1, §2, §3

[33] = tested on: UACC-893; conditions: Luminal, ER Negative, HER-2 Amplified, inhibition at 1 μM
Description: as §1, §2, §3

[34] = tested on: HCC-202; conditions: Luminal, ER Positive, HER-2 Amplified, inhibition at 1 μM
Description: as §1, §2, §3

[35] = tested on: ZR-75-1; conditions: Luminal, ER Positive, HER-2 Normal, inhibition at 1 μM
Description: as §1, §2, §3

[36] = tested on: MDA-MB-361; conditions: Luminal, ER Positive, HER-2 Amplified, inhibition at 1 μM
Description: as §1, §2, §3

[37] = tested on: MDA-MB-134; conditions: Luminal, ER Positive, HER-2 Normal, inhibition at 1 μM
Description: as §1, §2, §3

[38] = tested on: MDA-MB-157; conditions: Post-EMT, ER Negative, HER-2 Normal, inhibition at 1 μM
Description: as §1, §2, §3

[39] = tested on: KPL-1; conditions: Luminal, ER Positive, HER-2 Normal, inhibition at 1 μM
Description: CAL-51, KPL-1, Hs578t cells were grown in DMEM supplemented with 10% heat-inactivated FBS and PSF, as above. SUM-190 and SUM-225 cells were cultured in HAM's F12 supplemented with 5% heat-inactivated FBS, PSF, 5 mg/ml insulin and 1 mg/ml hydrocortisone.

`Cc1nc(Nc2ncc(C(=O)Nc3c(C)cccc3Cl)s2)cc(N2CCN(CCO)CC2)n1` [Dasatinib, N-(2-chloro-6-methylphenyl)-2-[[6-[4-(2-hydroxyethyl)-1-piperazinyl]-2-methyl-4-pyrimidinyl]amino]-5-thiazolecarboxamide] was tested, and the “Response to Dasatinib in vitro” value [1] was “Moderately Sensitive (40-59% inhibition being assigned to the moderately sensitive group)”, the “Response to Dasatinib in vitro” value [2] was “Highly Sensitive (greater than 60% inhibition being assigned to the highly sensitive group)” and the “Response to Dasatinib in vitro” value ([2]; listed as dasatinib) was “highly sensitive”. The “Response to Dasatinib in vitro” value [3] was “Moderately Sensitive (40-59% inhibition being assigned to the moderately sensitive group)”, the “Response to Dasatinib in vitro” value [4] was “Resistant (<40% inhibition at 1 μM assigned to the resistant group)” and the “Response to Dasatinib in vitro” value [5] was “Moderately Sensitive (40-59% inhibition being assigned to the moderately sensitive group)”. The “Response to Dasatinib in vitro” value [6] was “Highly Sensitive (greater than 60% inhibition being assigned to the highly sensitive group)”, the “Response to Dasatinib in vitro” value [7] was “Moderately Sensitive (40-59% inhibition being assigned to the moderately sensitive group)” and the “Response to Dasatinib in vitro” value [8] was “Highly Sensitive (greater than 60% inhibition being assigned to the highly sensitive group)”. The “Response to Dasatinib in vitro” value [9] was “Resistant (<40% inhibition at 1 μM assigned to the resistant group)”, the “Response to Dasatinib in vitro” value [10] was “Highly Sensitive (greater than 60% inhibition being assigned to the highly sensitive group)” and the “Response to Dasatinib in vitro” value [11] was “Moderately Sensitive (40-59% inhibition being assigned to the moderately sensitive group)”. The “Response to Dasatinib in vitro” value [12] was “Resistant (<40% inhibition at 1 μM assigned to the resistant group)”, the “Response to Dasatinib in vitro” value [13] was “Resistant (<40% inhibition at 1 μM assigned to the resistant group)” and the “Response to Dasatinib in vitro” value [14] was “Moderately Sensitive (40-59% inhibition being assigned to the moderately sensitive group)”. The “Response to Dasatinib in vitro” value [15] was “Resistant (<40% inhibition at 1 μM assigned to the resistant group)”, the “Response to Dasatinib in vitro” value [16] was “Resistant (<40% inhibition at 1 μM assigned to the resistant group)” and the “Response to Dasatinib in vitro” value [17] was “Resistant (<40% inhibition at 1 μM assigned to the resistant group)”. For the same molecule, the “Response to Dasatinib in vitro” value [18] was “Resistant (<40% inhibition at 1 μM assigned to the resistant group)”, the “Response to Dasatinib in vitro” value [19] was “Resistant (<40% inhibition at 1 μM assigned to the resistant group)” and the “Response to Dasatinib in vitro” value [20] was “Resistant (<40% inhibition at 1 μM assigned to the resistant group)”. For the same molecule, the “Response to Dasatinib in vitro” value [21] was “Highly Sensitive (greater than 60% inhibition being assigned to the highly sensitive group)”, the “Response to Dasatinib in vitro” value [22] was “Resistant (<40% inhibition at 1 μM assigned to the resistant group)” and the “Response to Dasatinib in vitro” value [23] was “Moderately Sensitive (40-59% inhibition being assigned to the moderately sensitive group)”. The “Response to Dasatinib in vitro” value [24] was “Highly Sensitive (greater than 60% inhibition being assigned to the highly sensitive group)”, the “Response to Dasatinib in vitro” value ([24]; listed as dasatinib) was “highly sensitive” and the “Response to Dasatinib in vitro” value [25] was “Resistant (<40% inhibition at 1 μM assigned to the resistant group)”. The “Response to Dasatinib in vitro” value ([25]; listed as dasatinib) was “resistant”, the “Response to Dasatinib in vitro” value [26] was “Moderately Sensitive (40-59% inhibition being assigned to the moderately sensitive group)” and the “Response to Dasatinib in vitro” value [27] was “Resistant (<40% inhibition at 1 μM assigned to the resistant group)”. For the same molecule, the “Response to Dasatinib in vitro” value [28] was “Resistant (<40% inhibition at 1 μM assigned to the resistant group)”, the “Response to Dasatinib in vitro” value [29] was “Moderately Sensitive (40-59% inhibition being assigned to the moderately sensitive group)” and the “Response to Dasatinib in vitro” value [30] was “Resistant (<40% inhibition at 1 μM assigned to the resistant group)”. The “Response to Dasatinib in vitro” value [31] was “Resistant (<40% inhibition at 1 μM assigned to the resistant group)”, the “Response to Dasatinib in vitro” value [32] was “Highly Sensitive (greater than 60% inhibition being assigned to the highly sensitive group)” and the “Response to Dasatinib in vitro” value [33] was “Resistant (<40% inhibition at 1 μM assigned to the resistant group)”. The “Response to Dasatinib in vitro” value [34] was “Resistant (<40% inhibition at 1 μM assigned to the resistant group)”, the “Response to Dasatinib in vitro” value [35] was “Resistant (<40% inhibition at 1 μM assigned to the resistant group)” and the “Response to Dasatinib in vitro” value [36] was “Moderately Sensitive (40-59% inhibition being assigned to the moderately sensitive group)”. For the same molecule, the “Response to Dasatinib in vitro” value [37] was “Resistant (<40% inhibition at 1 μM assigned to the resistant group)”, the “Response to Dasatinib in vitro” value [38] was “Highly Sensitive (greater than 60% inhibition being assigned to the highly sensitive group)” and the “Response to Dasatinib in vitro” value [39] was “Resistant (<40% inhibition at 1 μM assigned to the resistant group)”.
